# Entries after “also recorded” stand apart in the source; their conditions may differ.
# What was measured:
# [1] = system: JAK2V617F mutated bone marrow; assay: Myelofibrosis by JAK2V617F bone marrow transplantation, platelet counts; assay type: in vivo, mice; conditions: 5 mg/kg daily for three weeks
# Protocol: Murine femurs and tibias from JAK2V617F mutant mice were first harvested and cleaned thoroughly. Marrow cells were flushed into PBS with 2% fetal bovine serum using a 25G needle and syringe. Resulting cell suspensions were then filtered through a 40 uM cell strainer. Recipient mice were irradiated with two doses of 500 rad 4 h apart. 1 million of donor cells were injected into wild-type recipients by standard intravenous injection using a 27G insulin syringe. One week after bone marrow transplantation, mice were treated with guanabenz or clonidine at a dose of 5 mg/kg daily for three weeks. After three weeks of treatment, mice were dissected and peripheral blood was drawn by cardiac puncture, the platelet concentration was measured by Cell Counter Analyzer MS9-5V.
# [2] = system: fibrosarcoma; assay: Tumor model: fibrosarcoma; assay type: in vivo, mice; conditions: fibrosarcoma (FIG. 22H, 23H)
# Description: (§1) FIGS. 23A-H is a set of curves showing the tumor growth of mice treated with PBS (Control, circles) or guanabenz (GBZ, triangles) in different tumor models: such as mammary gland tumor (FIG. 23A), hepatocellular carcinoma (FIG. 23B), T cell lymphoma (FIG. 23C), lung cancer (FIG. 23D), myeloma (FIG. 23E), mammary adenocarcinoma (FIG. 23F), renal cancer (FIG. 23G) and fibrosarcoma (FIG. 23H).
# [3] = system: immune-resistant autochthonous melanoma tumors (TiRP); assay: TiRP melanoma with adoptive cell transfer (ACT) of P1A-specific CD8+T cells; assay type: in vivo, TiRP mice; conditions: 5 mg/kg
# Description: TiRP mice have been created by crossing Ink4a/Are^flox/flox mice with mice carrying a transgenic construct controlled by the tyrosinase promoter and driving the expression of H-Ras ^12V and Trapl a which encodes a MAGE-type tumor antigen P1A; the promoter is separated from the coding region by a stop cassette made of a floxed self-deleting CreER (Huijbers et al., 2006, Cancer Res 66, 3278-3286). Those mice were backcrossed to a B10.D2 background and bred to homozygosity. TCRP1A mice heterozygous for the H-2Ld/P1A35-43-specific TCR transgene were kept on the B10.D2;Rag1^−/− background (Shanker et al., 2004, J Immunol 172, 5069-5077). BALB/c mice were used in tumor transplantation experiments. TiRP-derived T429.11 transplanted melanoma model: T429.11 clone was derived from an induced Amela TiRP tumor referred to as T429. It was cloned from the T429 induced melanoma primary tumor line. Two million of T429.11 tumor cells were injected subcutaneously into recipient mice for tumor establishment (Zhu et al., 2017, Nat Commun. 10; 8(1):1404). Adra2a tm1Bkk mice (Strain Name: B6.129-Adra2a tm1Bkk /J, # 004367) were obtained from Jackson Laboratory (Bar Harbor, Me., USA).
# A fresh solution of 40H-Tamoxifen was prepared by dissolving 40H-Tamoxifen (Imaginechem®) in 100% ethanol and mineral oil (ratio 1:9) followed by 30 min sonication, and injected subcutaneously (2 mg/200 uL per mouse) in the neck area of gender-matched 7 weeks old TiRP mice. Tumor appearance was monitored daily and tumors were measured three times/week. Tumor volume (in mm^3) was calculated by the following formula: Volume=width^2×length/2.
# For the adoptive cell transfer (ACT), P1A-specific (TCRP1A) CD8+T cells were isolated from spleens and lymph nodes of TCRP1A mice as described hereinabove, and stimulated in vitro by co-culture with irradiated (10,000 rads) L1210.P1A.B7-1 cells (Gajewski et al., 1995, J Immunol 154, 5637-5648) at 1:2 ratio (0.5×10^5 CD8+T cells and 10^5 L1210.P1A.B7-1 cells per well in 48-well plates) in IMDM (GIBCO®) containing 10% fetal bovine serum supplemented with L-arginine (0.55 mM, Merck®), L-asparagine (0.24 mM, Merck®), glutamine (1.5 mM, Merck®), beta-mercaptoethanol (50 μM, Sigma Aldrich®), 50 U mL^−1 penicillin and […] mL^−1 streptomycin (Life Technologies®). Four days later, TCRP1A CD8+T cells were purified on a Lymphoprep gradient (StemCell®) and 10^7 living cells were injected intravenously in 200 μL PBS in TiRP-tumor bearing mice on the day of randomization.
# TiRP-tumor bearing mice received adoptive cell transfer (ACT) of 10^7 P1A-specific activated CD8+T cells and daily injections of vehicle control, clonidine (5 mg/kg, i.p.), or clonidine (5 mg/kg, i.p.) combined with phentolamine (5 mg/kg, i.p.), when the tumor size was around 500 mm^3, until the day of sacrifice. Tumor size was monitored every 2 days. Mice were sacrificed when the tumor in control group reached around 2,000 mm^3.
# TiRP-tumor bearing mice received adoptive cell transfer (ACT) of 10^7 of P1A-specific activated CD8+T cells. Daily injections of 5 mg/kg i.p. of romifidine or clonidine were thus administered from the day of the ACT, when the tumor size was around 500 mm^3, until the day of sacrifice. As shown on FIGS. 5A-B, following romifidine or clonidine administration, tumor infiltration of CD8+T cells was increased. […]
# [4] = system: T cell lymphoma; assay: Tumor model: T cell lymphoma; assay type: in vivo, mice; conditions: T cell lymphoma (FIG. 22C, 23C)
# Description: as §1
# [5] = system: MC38 colon carcinomas; assay: MC38 colon carcinoma in Adra2a KO mice; assay type: in vivo, C57BL/6 Adra2a KO mice; conditions: 5 mg/kg, i.p. daily from tumor size around 50 mm^3
# Protocol: C57BL/6 Wildtype or C57BL/6 Adra2a KO mice bearing MC38 colon carcinomas received daily injections of vehicle control (PBS), clonidine (5 mg/kg, i.p.) or guanabenz (5 mg/kg, i.p.), when the tumor size was around 50 mm^3, until the day of sacrifice.
# [6] = system: mammary adenocarcinoma; assay: Tumor model: mammary adenocarcinoma; assay type: in vivo, mice; conditions: mammary adenocarcinoma (FIG. 22F, 23F)
# Description: as §1
# [7] = system: B16F1 melanoma; assay: B16F1 melanoma in immune competent mice; assay type: in vivo; conditions: B16F1 in immune competent C57BL/6 mice; 5 mg/kg, i.p.; monotherapy
# Protocol: FIGS. 10A-B is a set of curves showing the tumor growth of B16F1 melanoma in C57BL/6J (FIG. 10A) or immunodeficient NSG mice (FIG. 10B) treated with PBS (Control, curve 1) or clonidine (5 mg/kg, i.p., curve 2).
# FIGS. 11A-B is a set of curves showing the tumor growth of B16F1 melanoma in C57BL/6J (FIG. 11A) or NSG mice (FIG. 11B) treated with PBS (Control, curve 1) or guanfacine (5 mg/kg, i.p., curve 2).
smiles,measurement,setting,value
Clc1cccc(Cl)c1N=C1NCCN1 [clonidine],platelet (PLT) counts,[1],significantly reduces the platelet (PLT) counts; also recorded: significantly reduced the high platelet counts
same,tumor growth,[2],strong tumor inhibition
same,tumor infiltration of CD8+T cells (%CD8+T cells among total CD45+T cells),"[3]; TiRP mice with ACT, 5 mg/kg i.p. daily from day of ACT, tumor size around 500 mm^3",increase of tumor infiltration of CD8+T cells; also recorded: increased
same,"tumor growth, combined with ACT","[3]; TiRP mice, ACT of 10^7 P1A-specific CD8+T cells, 5 mg/kg i.p. daily",strongly sensitized immune-resistant autochthonous melanoma tumors (TiRP) to adoptive cell transfer (ACT); also recorded: efficiently control the growth; also recorded: inhibited the tumor growth
same,tumor growth,[4],strong tumor inhibition
same,tumor inhibition in Adra2a KO mice,[5],almost completely attenuated
same,tumor growth,[6],strong tumor inhibition
same,tumor growth,[7],inhibited tumor growth

# Source: patent US20230165836A1, “ALPHA-2 ADRENERGIC RECEPTOR AGONISTS FOR THE TREATMENT OF CANCER” (UNIVERSITÉ CATHOLIQUE DE LOUVAIN, priority 2020, published 2023)
